In patent publication US12509439B2, “Anti-malarial agents” (UNIVERSITY OF KENTUCKY RESEARCH FOUNDATION, priority 2020, dated 2025):
Where two headings read alike, the source gives them in different places.

How the values were obtained:
[1] = Microsomal intrinsic clearance, human liver microsomes; assay type: in vitro ADME; settings: human liver microsomes (pooled), pH 7.4, 45 min, NADPH
Description: (§1) The compounds of the invention (1 μM) were incubated in suspension with human (rat or mouse) liver microsomes pooled from multiple donors (>10) and samples taken at 5 time points over the course of a 45 min experiment and analysed by LC MS/MS. Microsomes (final protein concentration 0.5 mg/mL), 0.1 M phosphate buffer pH 7.4 and test compound (final substrate concentration 1 μM; final DMSO concentration 0.25%) were pre-incubated at 37° C. prior to the addition of NADPH (final concentration 1 mM) to initiate the reaction. A minus cofactor control incubation was included for each compound tested where 0.1 M phosphate buffer pH 7.4 is added instead of NADPH (minus NADPH). All incubations were performed in duplicate for each test compound and the results averaged. Each compound is incubated for 0, 5, 15, 30 and 45 min. The control (minus NADPH) was incubated for 45 min only. The reactions were stopped by transferring incubate into acetonitrile at the appropriate time points, in a 1:3 ratio.
(§2) The termination plates were centrifuged at 3,000 rpm for 20 min at 4° C. to precipitate the protein. Following protein precipitation, the sample supernatants were combined in cassettes of up to 4 compounds, internal standard added and samples analysed by LC-MS/MS. From a plot of ln peak area ratio (compound peak area/internal standard peak area) against time, the gradient of the line is determined. Subsequently, half-life (t½) and intrinsic clearance (CLint) are calculated using the equations below: Elimination rate constant (k)=(−gradient) Half-life (t1/2)(min)=0.693/k Intrinsic clearance (i.e. CLint)(μL/min/mg protein)=V×0.693/t1/2 where V=Incubation volume (μL)/Microsomal protein (mg)
(§3) Verapamil and dextromethorphan were included in the assay as controls and if the values for these compounds were not within the specified limits the results were rejected and the experiment repeated.

[2] = Pharmacokinetic profile in dog (IV); settings: in vivo; for clearance: read-out: Cl (dog); for half-life: read-out: t½ (dog) (converted)
[3] = Microsomal intrinsic clearance, mouse liver microsomes; assay type: in vitro ADME; settings: mouse liver microsomes (pooled), pH 7.4, 45 min, NADPH
Description: as §1, §2, §3

[4] = biological target: T1, PfATP-4 (Plasmodium falciparum, UniProt A0A143ZZK9); experiment: Effect on cytosolic [Na+] in saponin-isolated Plasmodium falciparum (sodium flux assay, SBFI); assay type: cell-based; settings: SBFI-loaded 3D7 parasites, compound at 1 μM
T1 construct: Saponin-isolated parasites at a density of 1.4-1.8×10^8 cells/mL; endogenous in cells
T1 sequence (A0A143ZZK9 whole entry): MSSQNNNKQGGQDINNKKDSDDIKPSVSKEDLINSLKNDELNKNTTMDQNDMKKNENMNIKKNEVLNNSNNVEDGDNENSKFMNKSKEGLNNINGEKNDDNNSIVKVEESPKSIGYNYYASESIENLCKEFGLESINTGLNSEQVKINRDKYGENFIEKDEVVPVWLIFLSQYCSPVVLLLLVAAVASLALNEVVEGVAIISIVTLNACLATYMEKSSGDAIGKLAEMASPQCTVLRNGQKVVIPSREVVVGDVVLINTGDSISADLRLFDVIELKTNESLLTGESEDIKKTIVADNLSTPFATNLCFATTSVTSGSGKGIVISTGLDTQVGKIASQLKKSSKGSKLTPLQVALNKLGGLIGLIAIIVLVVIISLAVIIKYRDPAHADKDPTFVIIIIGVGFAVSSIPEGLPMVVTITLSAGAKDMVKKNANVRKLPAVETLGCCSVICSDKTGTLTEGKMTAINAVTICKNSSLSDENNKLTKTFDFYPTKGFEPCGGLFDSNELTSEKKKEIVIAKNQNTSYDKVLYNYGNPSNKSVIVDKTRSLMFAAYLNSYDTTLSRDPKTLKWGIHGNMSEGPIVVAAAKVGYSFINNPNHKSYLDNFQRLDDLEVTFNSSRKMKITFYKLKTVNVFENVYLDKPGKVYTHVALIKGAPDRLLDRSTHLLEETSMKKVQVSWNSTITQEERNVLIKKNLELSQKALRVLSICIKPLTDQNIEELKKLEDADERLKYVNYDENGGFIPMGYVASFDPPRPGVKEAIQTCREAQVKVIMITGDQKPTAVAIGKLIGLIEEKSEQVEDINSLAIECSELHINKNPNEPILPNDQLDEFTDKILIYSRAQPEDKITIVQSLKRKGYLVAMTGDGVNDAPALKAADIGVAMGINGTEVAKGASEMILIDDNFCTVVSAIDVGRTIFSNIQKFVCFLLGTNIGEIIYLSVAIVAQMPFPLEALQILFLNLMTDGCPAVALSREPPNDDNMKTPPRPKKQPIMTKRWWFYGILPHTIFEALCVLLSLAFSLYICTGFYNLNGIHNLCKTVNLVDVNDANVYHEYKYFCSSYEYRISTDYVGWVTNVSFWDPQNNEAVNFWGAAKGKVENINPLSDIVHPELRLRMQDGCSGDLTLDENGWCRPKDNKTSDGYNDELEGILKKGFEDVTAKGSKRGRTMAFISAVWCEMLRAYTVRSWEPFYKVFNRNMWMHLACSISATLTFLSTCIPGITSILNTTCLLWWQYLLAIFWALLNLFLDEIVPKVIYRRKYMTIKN
From the text: The ability of compounds of the invention to function as inhibitors of the Na+/H+-ATPase, which regulates parasite cytosolic sodium concentration has been tested in the following assay. Their effect on cytosolic sodium can be measured using a sodium flux assay (Biochemical characterization and chemical inhibition of PfATP4-associated Na+-ATPase activity in Plasmodium falciparum membranes. Rosling J. E. O. et al., 2018, J. Biol. Chem., 293: 13397). Saponin-isolated parasites at a density of 1.4-1.8×10^8 cells/mL, were suspended in bicarbonate-free RPMI1640 supplemented with 20 mM D-glucose, 0.2 mM hypoxanthine, 25 mM HEPES and 25 mg/L gentamycin sulfate (pH 7.10), then treated with sodium-binding benzofuran isophthalate acetoxymethyl ester ([…]) and Pluronic F-127 (0.01% w/v) for 20 min at 37° C. The dye-loaded cells were washed twice (12,000 g, 0.5 min) in bicarbonate-free RPMI then incubated for a further 20 min at 37° C. to allow for complete de-esterification of the dye before being resuspended at a final cell concentration of 1.5-2.5×10^7 cells/mL in standard saline. […] [Na+] was determined according to reference to a calibration curve of the 340/380 nm fluorescence ratio as described previously (In situ calibration and [H+] sensitivity of the fluorescent Na+ indicator SBFI. Diarra A. et al., 2001, Am. J. Physiol. Cell Physiol., 280: 1623).

[5] = tested on: Plasmodium falciparum (3D7); experiment: In-vitro potency against P. falciparum (3D7 strain), SYBR Green growth inhibition; assay type: cell-based; settings: P. falciparum 3D7, asexual intraerythrocytic stage, SYBR Green fluorescence
Description: Cultures of the widely-used malaria reference strain of chloroquine-sensitive Plasmodium falciparum (3D7) were maintained in a 1.25% suspension of human red blood cells cultured in RPMI 1640 medium (pH 7.3) supplemented with 0.5% Albumax II (Gibco Life Technologies, San Diego, CA), 12 mM sodium bicarbonate, 0.2 mM hypoxanthine, and 20 mg/L gentamicin at 37° C., in an atmosphere of 1% O2, 3% CO2 with a balance of nitrogen (Human malaria parasites in continuous culture. Trager W et al., 1976, Science, 193: 673-675). Growth inhibition was quantified using a fluorescence assay utilising the binding of SYBR Green (Novel, rapid, and inexpensive cell-based quantification of antimalarial drug efficacy. Bennett T. N. et al., 2004, Antimicrob. Agents Chemother., 48: 1807-1810) to double stranded DNA, which emits a fluorescent signal at 528 nm after excitation at 485 nm. Mefloquine was used as a drug control to monitor the quality of the assay (Z′=0.6 to 0.8, where Z′ is a measure of the discrimination between the positive and negative controls on a screen plate). Hits were confirmed by full-potency curves with dose-response curves determined from a minimum of 3 independent experiments. Compound bioactivity was expressed as EC50, the effective concentration of compound causing 50% parasite death. All data were processed using IDBS ActivityBase. Raw data was converted into percent inhibition through linear regression by setting the high inhibition control as 100% and the no inhibition control as 0%. Quality control criteria for passing plates were as follows: z′>0.5, S:B>3, % CV(no inhibition control)<15. The formula used to calculate z′ is
Curve fitting was carried out using the following 4 parametric equation:
where A=% inhibition at bottom, B=% inhibition at top, C=EC50, D=slope, x=inhibitor concentration and y=% inhibition. If curve definition was poor, B was fixed to 100.

Row | SMILES | microsomal CLint at 1 μM [1] | clearance ([2]; IV at 1 mg/kg) | half-life ([2]; IV at 1 mg/kg) | microsomal CLint at 1 μM [3] | Effect on cytosolic [Na+] [4] | EC50 [5] | clearance ([2]; IV at dose 3 mg/kg) | half-life ([2]; IV at dose 3 mg/kg)
1 | N#Cc1cc(NC(=O)[C@H]2c3ccccc3C(=O)N(CC(F)(F)F)[C@@H]2c2ccc(OC3CC3)nc2)ccc1F (single isomer, unassigned) [(1a)] | < 3 µL/min/mg | 0.26 mL/min/kg | 41 h | < 10 µL/min/mg | increase of cytosolic sodium concentration | 19 nM | – | –
2 | N#Cc1cc(NC(=O)[C@H]2c3ccccc3C(=O)N(CC(F)(F)F)[C@@H]2c2cnc(C(F)(F)F)nc2)ccc1F [(9a), (3S,4S)—N-(3-cyano-4-fluorophenyl)-1-oxo-2-(2,2,2-trifluoroethyl)-3-(2-(trifluoromethyl)pyrimidin-5-yl)-1,2,3,4-tetrahydroisoquinoline-4-carboxamide] | < 3 µL/min/mg | – | – | 10.1 µL/min/mg | increase of cytosolic sodium concentration | 103 nM | – | –
3 | N#Cc1cc(NC(=O)[C@H]2c3ccccc3C(=O)N(CC(F)(F)F)[C@@H]2c2cccnc2)ccc1F [(+) SJ-733, 4-Isoquinolinecarboxamide, N-(3-cyano-4-fluorophenyl)-1,2,3,4-tetrahydro-1-oxo-3-(3-pyridinyl)-2-(2,2,2-trifluoroethyl)-, (3S,4S)-, reference compound] | 140 µL/min/mg | – | – | 37 µL/min/mg | – | 145 nM | 3 mL/min/kg | 10 h
